# Reference: patent US11261232B2, “TNFRSF14 / HVEM proteins and methods of use thereof” (MEMORIAL SLOAN KETTERING CANCER CENTER, priority 2015, dated 2022)
# Columns and labels:
# [1] = system: purified human TFH cells; assay: TFH stimulation: viability and cytokine expression; format: cell-based
# Excerpt: FIG. 6A-I. Increased TFH cell recruitment supports to HVEM deficient lymphoma B cells. FIG. 6A, FACS identification and sorting of human GC derived TFH cells based on the markers CD3pos, CD4pos, CD25neg, PD1hi, CXCRShi, left: isotypic control; right; staining with anti-BTLA antibody; FIG. 6B and FIG. 6C, FACS measurement (FIG. 6B) and quantification (FIG. 6C) of intra-tumoral TFH cells in control and HVEM deficient murine lymphomas; FIG. 6D and FIG. 6E, qRT-PCR measurement of IL21 (FIG. 6D), and IL4 (FIG. 6E) in sorted intra-tumoral T cells (N=?); FIG. 6F, qRT-PCR measurement of the LTa, LTb, and TNFa mRNA expression in T cells isolated from the spleens of vector and shHVEM mice * p<?; G-I, qRT-PCR measurement of TNFa (FIG. 6G), LTa (FIG. 6H), and LTb (FIG. 61) in cell sorted TFH (n=4) cultured with anti-CD3/anti-CD28 Mabs in presence or not of soluble HVEM (solHVEM, 10 μg/ml), each symbol represents an independent TFH sample.
# FIG. 13A-E. Analysis of TFH cell function in HVEM deficient lymphomas. FIG. 13A and FIG. 13B, qRT-PCR measurement of the receptors for IL21 (IL-21ra; A), and IL4 (IL4ra; B) in purified lymphoma B cells; FIG. 13C, Viability of purified murine TFH cells (samples: n=4) that were cultured for 3 days with or without (UN) stimulation by anti-CD3/anti-CD28 in the presence or absence of the soluble HVEM ectodomain (solHVEM: 10 μg/ml); FIG. 13D, Cell-Sorted GC-TFH cultured with anti-CD3/anti-CD28 Mabs in presence or not of solHVEM; production of CXCL13(FIG. 13E) and IL-21(FIG. 13F) evaluated by ELISA.
# The stroma-derived cytokine CXCL13 is the main chemo-attractant for CXCRSpos follicular T helper cells (TFH) (Crotty, 2014). […] This increase in TFH cell numbers is associated with an elevated expression of the TFH derived cytokines. […] Further, it was observed that the increased production of IL21 and IL4 by TFH cells was matched with an elevated expression of the IL21 and IL4 receptors on FACS purified lymphoma B cells from HVEM deficient lymphomas (p<0.01) (FIGS. 13A and 13B). Human TFH cells are characterized by high-level expression of the BTLA receptor (FIG. 13C) and experiments were performed to test whether HVEM directly affected these tumor infiltrating T cells. […]
# Purified TFH were cultured in IMDM 10% FCS with or without anti-CD3 (0.6 μg/mL) and anti-CD28 (0.6 m/mL, Pelicluster Sanquin) MAbs in the presence or not of solHVEM (10 μg/mL). After 3 days of culture, the number of viable TFH was evaluated by flow cytometry using count beads (Flow Count, Beckman Coulter) and Topro-3 staining (Invitrogen). CXCL13 was quantified in culture supernatants by ELISA (R&D Systems) according to manufacturer's instructions.
# [2] = system: mouse lymphoma lines (BCL1 and Myc/Bc12); assay: qRT-PCR of TNF family cytokines in mouse lymphoma lines; format: cell-based; conditions: solHVEM 10 μg/ml; BCL1 and Myc/Bcl2 lines; 24 hrs
# Excerpt: FIG. 5A-I. Abnormal activation of the lymphoid stroma in B-cell lymphomas. FIG. 5A, Immunohistofluorescence staining for the FDC marker CD21/35 and the FRC marker Collagen 1 on control lymphomas (vector) and HVEM knockdown lymphomas (shHVEM) (n=3 for each, scale bars=100 μm); FIG. 5B and FIG. 5C, Systematic quantification of CD21/35 (left) and collagen I (right) staining in control (Vector) and HVEM deficient (shHVEM) lymphomas based on 12 areas in the T-cell zone and 30 areas in the B-cell zone per mice (cumulative number for 3 mice), respectively; ** p<0.01; *** p<0.001 by parametric t-test; FIG. 5D and FIG. 5E, CXCL13 (FIG. 5D) and CCL19 (FIG. 5E) expression by qRT-PCR on control (vector) and HVEM knockdown (shHVEM) lymphomas (mean of four replicates, error bars indicate standard deviation, * p<0.01); FIG. 5F, qRT-PCR measurement of the LTa, LTb, and TNFa mRNA expression in B cells isolated from the spleens of vector and shHVEM mice (n=3); FIG. 5G-I, qRT-PCR measurement of TNFa (FIG. 5G), LTa (FIG. 5H), and LTb (FIG. 5I) in B cell line BCL1 after 24 hrs of treatment with solHVEM (10 μg/ml).
# FIG. 12A-F. Analysis of the lymphoid stroma in B cell lymphomas. FIG. 12A, Immunohistofluorescence staining of CD20pos B cells, Transglutaminasepos FRCs, and CD21Lpos FDCs in reactive lymph nodes and two separate human follicular lymphoma tissue specimens; FIG. 12B, Flowchart of the image processing for FRC density (Collagen I); briefly, images were thresholded and transformed to binaries images, then a watershed algorithm was applied and number of polygons evaluated and analyzed by ImageJ software; FIG. 12C, Number of polygons indicates FRC density in control lymphomas (vector) and HVEM knockdown lymphomas showing no difference in FRC contribution. 40 areas were selected in the T cell zone and analyzed per mice (n=3 per each group); FIG. 12D-F, qRT-PCR measurement of TNFa (FIG. 12D), LTa (FIG. 12E), and LTb (FIG. 12F) in mouse B-cell line EuMyc-Bc12. […]
# [3] = with or without anti-CD3/anti-CD28, solHVEM 10 μg/mL, 3 days
substance,measurement,setting,value
solHVEM: Leu39-Val202 soluble HVEM ectodomain polypeptide of SEQ ID NO. 8,expression of LTa in TFH cells,[1]; solHVEM 10 μg/ml,reductions
same,expression of LTb in TFH cells,[1]; solHVEM 10 μg/ml,reductions
same,TFH cell numbers,[1]; [3],did not affect
same,TFH cell viability,[1]; [3],did not affect
same,expression of LTa,[2],readily decreased
same,expression of LTb,[2],readily decreased
same,expression of TNFa,[2],did not reduce
